# Experimental data from patent US20220098228A1, “METHODS AND COMPOSITIONS FOR IMPROVING THE IMMUNE SYSTEM AND PROVIDING IMMUNO-PROTECTION” (Natreon, Inc., priority 2020, published 2022).
# Like-named read-outs stand apart in the source and are kept apart here. Marks after values point to notes of the source that are not given here.
# Columns and labels:
# peritoneal macrophages [1] = test: NBT reduction of peritoneal macrophages (Example III); format: in vivo, Swiss albino mice; details: for NBT reduction compared with vehicle control: cyclophosphamide, 3-OH-DBP 2 and 10 mg/kg, combined 12 mg/kg
# Procedure: (§1) Male and female Swiss albino mice (n=8; 4 from each gender) weighing approximately 25±5 g, were obtained from National Research Institute of Ayurveda for Drug Development (Govt. of India), Kolkata, and were housed in polypropylene cages at 22±3° C., relative air humidity of 45 to 55%, with 12.00 h light & dark cycle (lighting on from 6:00 AM to 6:00 PM). […] The mice were acclimatized for one week in the laboratory conditions, before being used in the experiment. All experiments were conducted between 10.00 h and 14.00 h. Principles of laboratory animal care (NIH publication no. 85-23, revised 1985) was followed.
# (§2) Cyclophosphamide was dissolved in distilled water and the mice were administered a single exposure (250 mg/kg, i.p.) on day 1.
# (§3) 3-OH-DBP, 3,8-(OH)2-DBP, and combined 3-OH-DBP+3,8-(OH)2-DBP were administered once daily for 7 days starting from day 1. Following 7 days of treatment the mice were anaesthetized and sacrificed under anaesthesia followed by collection of peritoneal macrophages and spleen (for splenocyte isolation).
# (§4) Swiss albino mice were randomly divided into 8 Groups (n=8; 4 from each gender). […] (2:10) (12 mg/kg b.w., p.o.), Group VI mice were administered 3-OH-DBP (10 mg/kg b.w., p.o.), Group VII mice were administered 3,8-(OH)2-DBP (50 mg/kg b.w., p.o.), Group VIII mice were administered [3-OH-DBP+3,8-(OH)2-DBP] (10:50) (60 mg/kg b.w., p.o.).
# (§5) All the animals were sacrificed under ether anesthesia and peritoneal macrophages were lavaged using ice cold phosphate buffer saline (PBS: 0.15 M NaCl; pH: 7.4). After centrifugation (3000 rpm×10 min) at 4° C., pellets were re-suspended in PBS and cell viability was confirmed by trypan blue exclusion assay.
# Preparation of NBT solution: 0.2% NBT (nitroblue tetrazolium) in PBS (pH 7.4), 5% dextrose and HBSS. These three solutions were mixed in 6:2:4 ratios.
# 0.5 ml of NBT solution was added to 0.5 ml of peritoneal macrophages (1×10^6 cells/ml) in micro-centrifuge tube. This mixture was incubated at 37° C. for 2 hours. The cell suspension was centrifuged at 2000 rpm for 10 minutes. Supernatants were discarded and pellets were re-suspended in 1 ml of DMSO. The tubes were kept in boiling water bath for 10 minutes and then cooled and centrifuged at 2000 rpm for 10 minutes. The supernatants were collected and absorbance was measured at 515 nm.
# (§6) Results were expressed in terms of mean±SEM (n=8; 4 from each gender). Data were subjected to one way ANOVA followed by Tukey's test using GraphPad Prism 4.0 software to establish statistical significance (*p<0.05, **p<0.01, ***p<0.001, where * refers to comparison with Group I vehicle control; #p<0.05, ##p<0.01, ###p<0.001, where #refers to comparison with Group II cyclophosphamide administration; ^ap<0.05, ^aap<0.01, ^aap<0.01, where a refers to comparison of Day 7 with Day 0).
# splenocytes [2] = test: Cell viability of splenocytes, trypan blue exclusion, cyclophosphamide-induced immunosuppression (Example II); format: in vivo, Swiss albino mice
# Procedure: (§7) The mice were acclimatized for one week in the laboratory conditions, before being used in the experiment. All experiments were conducted between 10.00 hr and 14.00 hr. Principles of laboratory animal care (NIH publication no. 85-23, revised 1985) were followed.
# (§8) All test compounds (DBPs and DBP glycosides) were suspended in 0.3% of CMC (Carboxymethyl Cellulose) solutions of distilled water and were administered orally for 7 days by using an intubation canula. The volume of dose was 100 μl/10 g body weight. Cyclophosphamide was dissolved in distilled water and was injected (250 mg/kg, i.p.) on day one and volume of dose was 100 μl/10 g body weight. Control animals received equivalent volume of the vehicles CMC (0.3%) solutions only.
# Spleen was collected. Single cell suspension was prepared by mincing and tapping the spleen fragments on stainless steel 200-mesh in ice cold phosphate buffer saline (PBS: 0.15M NaCl pH 7.4). Cell suspension was centrifuged at 2000 rpm for 10 minutes. The pellet was re-suspended in PBS and cell viability was confirmed by trypan blue exclusion method.
# peritoneal macrophages [3] = test: NBT reduction assay in peritoneal macrophages, cyclophosphamide-induced immunosuppression (Example II); format: in vivo, Swiss albino mice
# Procedure: as §7, §8
# On day seven all the animals were sacrificed under ether anesthesia and peritoneal macrophages were lavaged using ice cold phosphate buffer saline (PBS: 0.15M NaCl pH-7.4). After centrifugation (3000 rpm×10 min) at 4° C. the pellet was re-suspended in PBS and cell viability was confirmed by trypan blue exclusion method. (Bala A, Haldar P K, Kar B, Naskar S and Mazumder U K, “Carbon tetrachloride: A hepatotoxin causes oxidative stress in murine peritoneal macrophage and peripheral blood lymphocyte cells” Immunopharmacol. and Immunotoxicol. 34(1): 157-162 (2012)).
# Preparation of NBT solution: 0.2% NBT (nitroblue tetrazolium) in PB (Phosphate Buffer, pH 7.4), 5% dextrose and HBSS (Hank's balanced salt solution). The three solutions were mixed in 6:2:4 ratios. (Saxena A K, Singh K P, Srivastava S N, Shukla L J and Shanker R., “Immunomodulating effects of caffeine in rodents” Ind J Exptl Biol. 22: 298-301 (1984)).
# Method: 0.5 ml of NBT solution was added to 0.5 ml of peritoneal macrophages (1×10^6 cells/ml) in a micro-centrifuge tube. This mixture was incubated at 37° C. for 45 minutes. The cell suspension was centrifuged at 1500 rpm for 10 minutes. Supernatant was discarded and pellet was re-suspended in 2 ml of DMSO. The tubes were kept in a boiling water bath for 10 minutes. The tubes were again centrifuged at 1500 rpm for 10 minutes. The supernatant was collected, and absorbance was measured at 515 nm.
# peritoneal macrophages [4] = test: Peritoneal macrophage viability, trypan blue exclusion (Example III); format: in vivo, Swiss albino mice; details: for % Viability Day 7, peritoneal macrophage viability: cyclophosphamide 250 mg/kg i.p. alone
# Procedure: as §1, §2, §3, §4, §5, §6
# splenocytes [5] = test: Splenocyte viability, trypan blue exclusion (Example III); format: in vivo, Swiss albino mice; details: for % Viability Day7, splenocyte viability: Day 7, cyclophosphamide 250 mg/kg i.p. alone
# Procedure: as §1, §2, §3, §4
# Spleens were collected and single cell suspension was prepared by mincing and tapping the spleen fragments on stainless steel 200-mesh in ice cold phosphate buffer saline (PBS: 0.15M NaCl; pH: 7.4). Cell suspensions were centrifuged at 2000 rpm for 10 minutes.
# as §6
# [6] = for Body Weight (gm) Day 0 / Feed Intake (gm) Day 0 / Water Intake (ml) Day 0 / Body Weight (gm) Day 7 / Feed Intake (gm) Day 7 / Water Intake (ml) Day 7: cyclophosphamide 250 mg/kg i.p. alone; for feed intake compared to vehicle control: 3,8-(OH)2-DBP 50 mg/kg
# Procedure: as §1, §2, §3, §4, §6
# [7] = cyclophosphamide 250 mg/kg i.p. day one, alone, day 7, Mean ± SD, n = 6
# [8] = female mice, cyclophosphamide alone
structure (smiles),measurement,setting,value
"O=P1(N(CCCl)CCCl)NCCCO1 (stereo not shown) [Cyclophosphamide, reference compound]","O.D. (515 nm) Day 7, NBT reduction of peritoneal macrophages","peritoneal macrophages [1]; female mice, Day 7, cyclophosphamide 250 mg/kg i.p. alone",0.119 ± 0.005***
same,NBT reduction compared with vehicle control,"peritoneal macrophages [1]; female mice, 3,8-(OH)2-DBP 10 and 50 mg/kg","significantly (p<0.05, p<0.01, p<0.001) decreased"
same,"O.D (515 nm) Day 7, NBT reduction of peritoneal macrophages","peritoneal macrophages [1]; male mice, Day 7, cyclophosphamide 250 mg/kg i.p. alone",0.209 ± 0.02419***
same,NBT reduction compared with vehicle control,"peritoneal macrophages [1]; male mice, 3,8-(OH)2-DBP 10 mg/kg","significantly (p<0.01, p<0.001) decreased"
same,% Cell Viability of splenocytes,splenocytes [2]; [7],51.12 ± 4.69 %
same,splenocyte viability,splenocytes [2]; cyclophosphamide alone vs control,significantly (p<0.01) decreased
same,"OD (515 nm), NBT reduction assay in peritoneal macrophages",peritoneal macrophages [3]; [7],0.117 ± 0.015
same,NBT reduction capacity of peritoneal macrophages,peritoneal macrophages [3]; cyclophosphamide alone vs CMC control,significant (p<0.001) decrease
same,"% Viability Day 7, peritoneal macrophage viability",peritoneal macrophages [4]; female mice,58.19 ± 0.60** %
same,peritoneal macrophage viability compared with vehicle control,peritoneal macrophages [4]; [8],significantly (p<0.05) decreased
same,"% Viability Day 7, peritoneal macrophage viability",peritoneal macrophages [4]; male mice,55.72 ± 2.18* %
same,peritoneal macrophage viability compared with vehicle control,"peritoneal macrophages [4]; male mice, cyclophosphamide, 3-OH-DBP 2 mg/kg, 3,8-(OH)2-DBP 10 mg/kg",significantly (p<0.05) decreased
same,"% Viability Day7, splenocyte viability",splenocytes [5]; female mice,79.70 ± 1.58*** %
same,splenocyte viability compared with vehicle control,splenocytes [5]; [8],significantly (p<0.001) decreased
same,"% Viability Day7, splenocyte viability",splenocytes [5]; male mice,70.22 ± 0.98*** %
same,splenocyte viability compared with vehicle control,"splenocytes [5]; male mice, cyclophosphamide, 2 mg/kg 3-OH-DBP, 10 mg/kg 3,8-(OH)2-DBP, 12 mg/kg combined",significantly (p<0.001) decreased
same,Body Weight (gm) Day 0,[6]; female mice,23.00 ± 1.89 gm
same,Feed Intake (gm) Day 0,[6]; female mice,28.50 ± 0.96 gm
same,Water Intake (ml) Day 0,[6]; female mice,3.620 ± 0.16 mL
same,Body Weight (gm) Day 7,[6]; female mice,21.75 ± 0.63 gm
same,Feed Intake (gm) Day 7,[6]; female mice,24.71 ± 0.41^a gm
same,Water Intake (ml) Day 7,[6]; female mice,6.425 ± 0.48 mL
same,feed intake compared to vehicle control,"[6]; female mice, cyclophosphamide, 3-OH-DBP 10 mg/kg","significantly (p<0.05, p<0.01) decreased"
same,Body Weight (gm) Day 0,[6]; male mice,30.75 ± 1.89 gm
same,Feed Intake (gm) Day 0,[6]; male mice,28.50 ± 0.96 gm
same,Water Intake (ml) Day 0,[6]; male mice,6.125 ± 0.16 mL
same,Body Weight (gm) Day 7,[6]; male mice,30.50 ± 2.18 gm
same,Feed Intake (gm) Day 7,[6]; male mice,26.81 ± 0.86^a gm
same,Water Intake (ml) Day 7,[6]; male mice,"5.863 ± 0.15*,## ml"
same,feed intake compared to vehicle control,"[6]; male mice, cyclophosphamide, 3-OH-DBP 10 mg/kg","significantly (p<0.05, p<0.01) decreased"
same,feed intake Day 7 in comparison to Day 0,"[6]; male mice, cyclophosphamide, 3-OH-DBP 10 mg/kg, 3,8-(OH)2-DBP 10 and 50 mg/kg","significantly (p<0.05, p<0.01) decreased"
